In patent publication US20020015941A1, “Method for treatment of neurodegenerative diseases” (The General Hospital Corporation, priority 2000, published 2002):
Read-outs that look alike come from different tables or passages of the source.

Key:
[1] = system: Aβ42/Aβtotal in HEK293 cells stably overexpressing human APP; type: cell-based
[2] = system: Aβ42/Aβtotal in CHO cells stably overexpressing human APP; test: Aβ sandwich ELISA, CHO cells stably overexpressing human APP; type: cell-based, Chinese hamster

Compound	ratio of Aβ42/Aβtotal (Aβ42 generation) ([1]; HEK293-APP, SKF96365 100 μM, nifedipine 1 μM, ω-conotoxin GVIA 1 μM, 12 hour treatment)	ratio of Aβ42/Aβtotal (Aβ42 generation) ([2]; CHO-APP, SKF96365 100 μM, nifedipine 1 μM, ω-conotoxin GVIA 1 μM, 12 hour treatment)	ratio of Aβ42/Aβtotal (Aβ42 generation) [1]	ratio of Aβ42/Aβtotal (Aβ42 generation) [2]
COc1ccc(CCCOC(Cn2ccnc2)c2ccc(OC)cc2)cc1 (stereo not shown) [SKF96365]	specifically elevated	specifically elevated	–	–
ω-conotoxin GVIA	–	–	no significant effect	no significant effect
